For test [1], the target named is T1, GppNHp-loaded KRAS4b (amino acids 1-169) G12C/C118S protein (Homo sapiens, UniProt P01116, C118S/G12C).
T1 construct: KRAS4b (amino acids 1-169) G12C/C118S protein; made in house
Description: Covalent cysteine 12 modification by MALDI-TOF MS, GppNHp-loaded KRAS G12C. It is filed as binding. The settings on record: 15 minutes reaction time point. The essentials:
(§1)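 KRAS4b 1-169 G12C/C118S loaded with GDP, GppNHp or GTP was used at 1 μM in 20 mM HEPES, 150 mM NaCl, 1 mM MgCl2, pH 7.3, and incubated with compound (5 mM DMSO stock) at room temperature in the dark. % modification at 15 min is adduct peak height over total protein peak heights by linear-mode MALDI-TOF.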

Test [2] concerns the target T2, GTP-loaded KRAS4b (amino acids 1-169) G12C/C118S protein (Homo sapiens, UniProt P01116, C118S/G12C).
T2 construct: KRAS4b (amino acids 1-169) G12C/C118S protein; made in house
Description: Covalent cysteine 12 modification by MALDI-TOF MS, GTP-loaded KRAS G12C. Format: binding. The settings on record: 15 minutes reaction time point. The method, then: Reaction: 1 μM of GppNHp-, GTP-, or GDP-loaded KRAS4b (amino acids 1-169) G12C/C118S protein (produced in-house by Protein Expression Laboratory, FNLCR/Leidos Biomed) in 20 mM 4-(2-hydroxyethyl)-1-piperazineethanesulfonic acid (HEPES) buffer containing 150 mM NaCl, 1 mM MgCl2, pH 7.3 was prepared freshly before assay. Ten-μL aliquots of protein were dispensed onto low volume 384-well plate, then 375 nL DMSO, and 25 nL of tested compounds from 5 mM DMSO stocks were added to appropriate wells using ECHO 555 acoustic liquid handler (Labcyte Inc.). For each reaction/assay, three blanks were prepared by mixing 10 μL of protein solution with 400 nL DMSO. The contents of the wells were carefully mixed by aspiration, and then each plate was sealed with an adhesive cover, centrifuged at 2000 g for 1 minute, and kept in the dark at room temperature until 5 min, 15 min, 30 min, or 2 h collections.
Target pretreatment: Before each assay MALDI target (Bruker MPT 384 ground steel BC) was pre-treated by pipetting on each spot 0.75 μL of saturated sinapinic acid in acetonitrile (ACN).
Sample preparation: At collection time point, 2 μL of reaction mixtures were pipetted out into 20 μL MALDI matrix solution (saturated solution of sinapinic acid in 1:1 ACN:water solution containing 0.75% trifluoroacetic acid (TFA)) deposited on 384 well polypropylene plate. Resulting solution was mixed by aspiration, centrifuged at 2000 g for 1 minute, then 1 μL aliquots were dispensed on pre-treated MALDI target using Beckman Coulter Biomek FXP 96/384-Span-8 Laboratory Automation Workstation. Finally, the MALDI target was dried under mild vacuum to produce spots with fine crystalline structure.
Measurements: MALDI-TOF measurements were performed on a Bruker Daltonics rapiflex Tissuetyper TOF-TOF mass spectrometer using linear mode and mass range from 18.6 to 21.6 kDa. Detector gain was set to 3.3× (483 V), sample rate to 5 GS/s, real time smoothing to medium (175 MHz), laser smart beam pattern was set to: “MS Thin Layer M5”, and the laser frequency was 10000 Hz. Spectra were automatically collected using custom Auto Xecute method. Laser power was auto adjusted using fuzzy control. The peak selection range was set to be between 19000 and 21500 Da. Peak evaluation uses half width parameter set to be smaller than 40 Da for processed spectrograms (centroid peak detection; smoothed by SavitzkyGolay algorithm using 7 m/z width and 2 cycles; baseline was subtracted using median algorithm with flatness 1 and median level 0.01). Fuzzy control used Proteins/Oligonucleotides protocol with minimum half width 1/10 times above threshold. Up to 40000 satisfactory shots were collected in 10000 shot steps. Dynamic termination was implemented to finish data collection when peak signal/noise ratio was reaching value of 50.
Spectra processing: Spectra were smoothed by SavitzkyGolay algorithm using 7 m/z width and three cycles. Centroid peak detection algorithm was used with signal to noise threshold set to 6, relative intensity threshold 4%, peak width 10 m/z and median baseline subtraction using flatness of 1 and median level of 0.01. Peak intensity and area under the peak were evaluated and recorded for all peaks between 19,300 Da and 21,550 Da.
Calculation of percent modification: Percent modification was calculated as a ratio of peak height for protein modified by compound to sum of peak height of remaining protein plus peak height for protein modified by compound. If multiple modifications were observed each was calculated as a ratio of peak height for given modification versus sum of peak heights for all observed protein species. Data reported in Table 5 are from 15 minutes reaction time point.

In test [3] the target is T3, GDP-loaded KRAS4b (amino acids 1-169) G12C/C118S protein (Homo sapiens, UniProt P01116, C118S/G12C).
T3 construct: KRAS4b (amino acids 1-169) G12C/C118S protein; made in house
Description: Covalent cysteine 12 modification by MALDI-TOF MS, GDP-loaded KRAS G12C. It is filed as binding. The settings on record: 15 minutes reaction time point. The essentials:
as §1

Test [4] deals with T4, Avi-KRAS G12C (1-169) GppNHp/RAF1 RBD-3×FLAG (52-151) (Homo sapiens, UniProt P01116, G12C).
T4 construct: Avi-KRAS G12C (1-169) GppNHp/RAF1 RBD-3×FLAG (52-151)
The test is described as follows: Raf1 RBD-KRAS G12C-GppNHp disruption (protein:protein interaction HTRF assay). It is filed as biochemical. The essentials:
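HTRF measuring disruption of 50 nM Avi-KRAS G12C (1-169) loaded with GppNHp binding RAF1 RBD-3×FLAG (52-151), in pH 7.5 Tris buffer with 5 mM MgCl2, 0.1% BSA, 10% DMSO. KRAS preincubated with compound 1 h, then RBD 1 h, then detection reagents 1 h, all at room temperature. Compound titration 30-0.02 μM; activity expressed as percent of DMSO control.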
In general terms: In TR-FRET formats the signal depends on donor and acceptor labels being close together.

Another test has as its system pERK in NCI-H358 cells. Description: Cell-based pERK HTRF assay. The settings on record: 30 min incubation, read-out: pERK in NCI-H358 cell inhibition IC50. An outline of the steps: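 Cells seeded at 4×10^4/well in RPMI with 10% FBS, then next day treated for 30 min with a 9-point, 3-fold series from 75 μM top concentration at 0.25% DMSO. Lysates were read for pERK by HTRF (d2/Eu cryptate antibodies) after 4–24 h at room temperature, emission at 615 nm.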

Here are results for eight molecules from US20250188085A1, “COMPOSITIONS AND METHODS FOR INHIBITION OF RAS” (THERAS, INC., priority 2022, published 2025).

Like-named read-outs stand apart in the source and are kept apart here.

For orientation: IC50 means the concentration at which inhibition is half-maximal. Regarding `C=CC(=O)N1CC[C@@H](Oc2nc(OC[C@@]34CCCN3C[C@H](F)C4)nc3c(F)c(-c4ccc(F)c5sc(N)c(C#N)c45)c(C(F)(F)F)cc23)[C@H]1COC` (atropisomer, axis not shown) [Compound 96], the “GppNHp-KRAS G12C percent of modification” value in test [1] was “D (percent of modification <10%)”. In addition, the “GTP-KRAS G12C percent of modification” value in test [2] is reported as “D (percent of modification <10%)”. In addition, the “GDP-KRAS G12C percent of modification” value in test [3] is listed as “D (percent of modification <10%)”. Also, the IC50 in test [4] lay within 5000 to 20000 nM; in the test with pERK in NCI-H358 cells, 100 to 1000 nM.

Regarding `C=CC(=O)N1C[C@H](Oc2nc(OC[C@@]34CCCN3C[C@H](F)C4)nc3c(F)c(-c4ccc(F)c5sc(N)c(C#N)c45)ccc23)C[C@H]1C` [Compound 68], the “GppNHp-KRAS G12C percent of modification” value in test [1] is listed as “A (percent of modification ≥70%)”. In addition, in test [2], the “GTP-KRAS G12C percent of modification” value is “C (10%≤modification <50%)”. Moreover, the “GDP-KRAS G12C percent of modification” value in test [3] was “A (percent of modification ≥70%)”. Moreover, the IC50 in test [4] was at most 500 nM; with pERK in NCI-H358 cells (Homo sapiens, NCI-H358, 0.5 h), 100 to 1000 nM.

Turning to `C=CC(=O)N1C[C@H](Oc2nc(OC[C@@]34CCCN3C[C@H](F)C4)nc3c(F)c(-c4ccc(F)c5sc(N)c(C#N)c45)c(C(F)(F)F)cc23)C[C@H]1COC` (atropisomer, axis not shown) [Compound 89], in test [1], the “GppNHp-KRAS G12C percent of modification” value is listed as “B (50≤percent of modification <70%)”. For the same molecule, the “GTP-KRAS G12C percent of modification” value in test [2] is on record as “B (50≤percent of modification <70%)”. In test [3], the “GDP-KRAS G12C percent of modification” value is given as “A (percent of modification ≥70%)”. In addition, the 50% inhibitory concentration (IC50) is at most 500 nM in test [4] and at most 100 nM with pERK in NCI-H358 cells.

Turning to `C=CC(=O)N1CC[C@@H](Oc2nc(OC[C@@]34CCCN3C[C@H](OC)C4)nc3cc(-c4ccc(F)c5sc(N)c(C#N)c45)c(C(F)(F)F)cc23)[C@H]1C` [Compound 102], the “GppNHp-KRAS G12C percent of modification” value in test [1] is reported as “A (percent of modification ≥70%)”. Besides, the “GTP-KRAS G12C percent of modification” value in test [2] is given as “A (percent of modification ≥70%)”. The “GDP-KRAS G12C percent of modification” value in test [3] was “A (percent of modification ≥70%)”. Also, the IC50 is at most 500 nM in test [4] and at most 100 nM in the test with pERK in NCI-H358 cells (Homo sapiens, NCI-H358, 0.5 h).

As to `C=CC(=O)N1CC[C@@H](Oc2nc(OC[C@@]34CCCN3C[C@H](F)C4)nc3c(F)c(-c4ccc(F)c5sc(N)c(C#N)c45)ccc23)[C@@H]1COC` [Compound 125], in test [1], the “GppNHp-KRAS G12C percent of modification” value is “D (percent of modification <10%)”. For the same molecule, in test [2], the “GTP-KRAS G12C percent of modification” value is listed as “D (percent of modification <10%)”. The “GDP-KRAS G12C percent of modification” value in test [3] is listed as “C (10%≤modification <50%)”. Besides, the IC50 is over 20000 nM in test [4] and over 1000 nM with pERK in NCI-H358 cells (Homo sapiens, NCI-H358, 0.5 h).

Regarding `C=CC(=O)N1CCC(Oc2nc(N3CC(N4CC5(CC5)C4)C3)nc3c(F)c(-c4ccc(F)c5sc(N)c(C#N)c45)c(C(F)(F)F)cc23)C1` (stereo not shown) [Compound 78], in test [1], the “GppNHp-KRAS G12C percent of modification” value was “C (10%≤modification <50%)”. Further, in test [2], the “GTP-KRAS G12C percent of modification” value is reported as “D (percent of modification <10%)”. In test [3], the “GDP-KRAS G12C percent of modification” value was “C (10%≤modification <50%)”. For the same molecule, the 50% inhibitory concentration (IC50) in test [4] was at most 500 nM; in the test with pERK in NCI-H358 cells (Homo sapiens, NCI-H358, 0.5 h), at most 100 nM.

In the case of `C=CC(=O)N1CC[C@@H](Oc2nc(OC[C@@]34CCCN3C[C@H](F)C4)nc3c(F)c(-c4ccc(F)c5sc(N)c(C#N)c45)c(Cl)cc23)[C@@H]1C` [Compound 121], the “GppNHp-KRAS G12C percent of modification” value in test [1] is “C (10%≤modification <50%)”. Besides, in test [2], the “GTP-KRAS G12C percent of modification” value is listed as “D (percent of modification <10%)”. For the same molecule, the “GDP-KRAS G12C percent of modification” value in test [3] is “C (10%≤modification <50%)”. In addition, the IC50 in test [4] was at most 500 nM; in the test on pERK in NCI-H358 cells (Homo sapiens, NCI-H358, 0.5 h), 100 to 1000 nM.

Regarding `C=CC(=O)N1CC[C@@H](Oc2nc(OC[C@@]34CCCN3C[C@H](F)C4)nc3c(F)c(-c4ccc(F)c5sc(N)c(C#N)c45)c(C(F)(F)F)cc23)[C@@H]1COC` [Compound 127], in test [1], the “GppNHp-KRAS G12C percent of modification” value is listed as “D (percent of modification <10%)”. Moreover, the “GTP-KRAS G12C percent of modification” value in test [2] is recorded as “D (percent of modification <10%)”. Moreover, the “GDP-KRAS G12C percent of modification” value in test [3] is listed as “B (50≤percent of modification <70%)”. Moreover, the IC50 in test [4] is at most 500 nM; with pERK in NCI-H358 cells (Homo sapiens, NCI-H358, 0.5 h), 100 to 1000 nM.
